In one data set the test system is p38α MAP Kinase. The experiment in a line: A549 p38α MAP Kinase Bright-Glo Reporter Gene Assay. The conditions noted are these: Homo sapiens, IL-1 beta stimulated, IL-8 promoter luciferase reporter, read-out: A549 p38 RGA IC50. It is filed as cell-based. The protocol: A549 cells were stably-transfected with the IL-8 promoter driven reporter, pGL3-IL8-Luc. The cells were plated at 4×10^5/ml into 384-well solid white plates (40 ul/well, 5% CD-FBS, 1×P/S, DMEM) and were incubated overnight (18-20 hours) at 37° C. Test compounds were serially diluted in DMSO, then 50 nl of test solution was added to the incubation (final DMSO concentration of 0.1%). After incubating with test compound for 30 min, cells were stimulated with 1 ng/ml IL-1 beta (10 ul of 5 ng/ml solution per well). Bright-Glo (25 ul/well) was added to measure luciferase expression after 7-8 hours of stimulation.
In general terms: In a reporter assay the amount or activity of a reporter protein is the signal.

Data set [1] concerns A375 melanoma cell line (B-Raf V600E). In words: A375 Cellular Proliferation Assay (A375 CP). The conditions noted are these: Homo sapiens. The format is cell-based. On the procedure:
A375-luc cells engineered to express luciferase are plated to 384-well white clear bottom plates as 1,500 cells/50 μl/well in DMEM containing 10% FBS. Compounds of the invention dissolved in 100% DMSO at appropriate concentrations are transferred to the cells by a robotic Pin Tool (100 nl). The cells are incubated for 2 days at […], then 25 μl of BrightGlo™ is added to each well and the plates are read by luminescence.

A short description of data set [2]: Liver Microsomal Clearance Assay (mouse). The following applies: extraction ratio, mouse liver microsomes, 1 μM compound. It is filed as in vitro ADME. On the procedure:
(§1) The in vitro microsomal clearance assay is designed to assess potential risks associated with hepatic metabolic stability of compounds. The test compound (1 μM) was incubated with liver microsomes (0.5 mg/mL) from different species (mouse, rat, monkey, dog and human) and NADPH (1 mM) in 100 mM potassium phosphate buffer at 37° C. At specific reaction time points (0, 5, 10 and 30 minutes), reaction aliquots were removed and reactions were terminated by addition of ice cold acetonitrile containing mass spectrometry internal standard. The samples were centrifuged and the supernatants were analyzed by LC-MS/MS. In vitro metabolic half-life (t1/2, min) and intrinsic clearance (CLint, μL/min/mg) are based on the rate and extent of metabolism of the test compound as determined by the disappearance of the parent compound from the reaction mixture. These values may be scaled to predict hepatic metabolic clearance rate (CLh, mL/min/kg) and extraction ratio (ER, expressed as a ratio of the predicted hepatic metabolic clearance to hepatic blood flow in that species). In general, compounds with high predictedCLint or ER in vitro are considered to be at high risk for exposure-limiting metabolism in vivo.

Data set [3] can be described thus: Liver Microsomal Clearance Assay (human). The format is in vitro ADME. The following applies: extraction ratio, human liver microsomes, 1 μM compound. The protocol:
as §1
Background: Liver microsomes are vesicles of endoplasmic reticulum, rich in cytochrome P450 enzymes.

The next data set has as its system SW620 cells. In words: SW620 Cell Viability Assay (Cell Titer Glo). The format is cell-based. The conditions noted are these: 10 to 0.002 μM, no MEK inhibitor. The protocol:
The present invention also includes combinations of the BRaf inhibitors disclosed in this invention with other agents. In particular, the present invention provides for combinations with MEK1/2 inhibitors. FIG. 1 illustrates that the addition of a MEK small molecule inhibitor can reverse the induced ERK signaling, cell growth and transformation caused by a Raf small molecule inhibitor.
SW620 cells were seeded in 1640 RPMI+10% FBS at a density of 1500 cells per 96-well in black walled, clear bottom tissue culture treated plates. Test compounds were serially diluted in DMSO then added to the cells (final DMSO concentration of 0.1%) and incubated at 37° C. and 5% CO2 for 4 days. To measure cell viability, cell plates were brought to room temperature, culture media was removed, and 200 μl of Cell Titer-Glo reagent (Promega, kit components mixed as per the manufacturer's protocol then diluted 1:2 with growth media) was added to each well. Plates were shaken for 5 minutes, then incubated at room temperature for 5 minutes, and the luminescence was measured (Trilux, Perkin Elmer).

Setting [4] is: A-375, 48 h, A375-luc cells, 2 days, read-out: A375 CP IC50.
[5] abbreviates: A-375, as repeated in p38 table, read-out: A375 CP IC50.

Each structure is given as a SMILES string. Like-named read-outs stand apart in the source and are kept apart here. A value given as a limit tells only on which side of the number the result lay.

What is called IC50 is the concentration at which inhibition is half-maximal.

Consider `COC(=O)NC[C@H](C)Nc1nccc(-c2cn(C(C)C)nc2-c2cc(Cl)cc(NS(C)(=O)=O)c2F)n1` [Compound 32, Methyl N-[(2S)-2-({4-[3-(5-chloro-2-fluoro-3-methanesulfonamidophenyl)-1-(propan-2-yl)-1H-pyrazol-4-yl]pyrimidin-2-yl}amino)propyl]carbamate], for which the IC50 in the data set on p38α MAP Kinase was determined as 690 nM; in data set [1] (setting [4]), 31 nM; in data set [1] (setting [5]), 31 nM.
As to `CNc1nccc(-c2cn(C(C)C)nc2-c2cc(Cl)cc(NS(C)(=O)=O)c2F)n1` [Compound 29, N-(5-chloro-2-fluoro-3-{4-[2-(methylamino)pyrimidin-4-yl]-1-(propan-2-yl)-1H-pyrazol-3-yl}phenyl)methanesulfonamide], the IC50 in the data set with p38α MAP Kinase amounted to 17000 nM; in data set [1] (setting [4]), 76 nM; in data set [1] (setting [5]), 76 nM; in data set [1] (A-375, read-out: A375 IC50), 76 nM.
On to `CCCS(=O)(=O)Nc1cc(Cl)cc(-c2nn(C(C)C)cc2-c2ccnc(NC[C@H](C)NC(=O)OC)n2)c1F` [Compound 1, Methyl N-[(2S)-1-[(4-{3-[5-chloro-2-fluoro-3-(propane-1-sulfonamido)phenyl]-1-(propan-2-yl)-1H-pyrazol-4-yl]pyrimidin-2-yl)amino]propan-2-yl]carbamate], for which, in data set [2], the “ER Mouse” value is 0.79. For the same molecule, the IC50 in data set [1] (setting [4]) amounted to 2 nM. For the same molecule, the “ER Human” value in data set [3] turned out to be 0.66.
Taken in the same sequence, the figures for `CCCS(=O)(=O)Nc1ccc(F)c(-c2nn(C(C)C)cc2-c2ccnc(NC[C@H](C)NC(=O)OC)n2)c1F` [Compound 7, Methyl N-[(2S)-1-[(4-{3-[2,6-difluoro-3-(propane-1-sulfonamido)phenyl]-1-(propan-2-yl)-1H-pyrazol-4-yl}pyrimidin-2-yl)amino]propan-2-yl]carbamate] were 0.91, 8 nM and 0.65.
On to `COC(=O)N[C@@H](C)CNc1nccc(-c2cn(C(C)C)nc2-c2cc(Cl)cc(NS(C)(=O)=O)c2F)n1` [Compound 9, Methyl N-[(2S)-1-({4-[3-(5-chloro-2-fluoro-3-methanesulfonamidophenyl)-1-(propan-2-yl)-1H-pyrazol-4-yl]pyrimidin-2-yl}amino)propan-2-yl]carbamate], for which the “effect on cellular proliferation (negative inhibition in FIG. 1)” value in the data set on SW620 cells is reported as “induction in cellular proliferation”. Further, the IC50 with p38α MAP Kinase was 2200 nM; in data set [1] (setting [4]), 2 nM; in data set [1] (setting [5]), 2 nM; in data set [1] (A-375, read-out: A375 IC50) it was 2 nM. In data set [2], the “ER Mouse” value is on record as 0.48. In addition, the “ER Human” value in data set [3] is reported as below 0.21.
As for `CCCS(=O)(=O)Nc1cccc(-c2nn(C(C)C)cc2-c2ccnc(NC[C@H](C)NC(=O)OC)n2)c1F` [Compound 3, methyl N-[(2S)-1-[(4-{3-[2-fluoro-3-(propane-1-sulfonamido)phenyl]-1-(propan-2-yl)-1H-pyrazol-4-yl}pyrimidin-2-yl)amino]propan-2-yl]carbamate], in data set [2], the “ER Mouse” value is 0.85. Moreover, the IC50 in data set [1] (setting [4]) is 2 nM. For the same molecule, the “ER Human” value in data set [3] is 0.69.

The values are drawn from patent US10568884B2, “Compounds and compositions as protein kinase inhibitors” (Array BioPharma, Inc., priority 2009, dated 2020).
